The results in this text go back to patent US9408910B2, “Anticancer prodrug activated by radiation or ultraviolet treatment and use thereof” (priority 2011, dated 2016).

Numbered stars: 1 amine (or outer) side, 2 acyl side, 3 side chain; on linkers, the order of the positions; unused ones are H or OH. Square brackets hold non-standard residues; d marks the D form. Peptide text beside a SMILES is read from it. * marks the point of attachment. Doxorubicin(3'-N) = COc1cccc2c1C(=O)c1c(O)c3c(c(O)c1C2=O)C[C@@](O)(C(=O)CO)C[C@@H]3O[C@H]1C[C@H](N*)[C@H](O)[C@H](C)O1; PABC = O=C(OCc1ccc(N[*:1])cc1)[*:2]

The subject of series [1] is SCC 7 cells. The experiment in a line: Cytotoxicity evaluation by in vitro MTT assay (Example 4). The series is classed as cell-based. The settings on record: no caspase-3 expression. As to the method: Cytotoxicity was evaluated by in vitro MTT assay.
In detail, SCC 7 cells were radiated at a dose of 1 Gy, 5 Gy, or 10 Gy, and then the medium was removed after 2 h, 6 h, 12 h, 24 h, or 48 h. 20 μl of MTT solution per 100 μl of medium was treated, and then reacted at 30° C. for 1 hour in the dark. Thereafter, the cells were washed with PBS three times, and the medium was removed. 100 μl of DMSO was added to dissolve MTT formazan, followed by ELASA (test wavelength: 570 nm).
That is, total 6 experiments were carried out, and the results are shown FIGS. 9a to 9f. a) Radiation of cells at a radiation dose of 1 Gy, 5 Gy, 10 Gy, 15 Gy, 20 Gy, followed by MTT assay (radiation MTT assay), b) Treatment of cells with doxorubicin at a dose of 0.1 μM, 0.5 μM, 1 μM, and 5 μM, followed by MTT assay (Doxorubicin MIT assay), c) Treatment of cells with anticancer prodrug (KGDEVD-DOX) prepared in Example 1, followed by MTT assay (KGDEVD-DOX MTT assay), d) Treatment of cells with caspase-3-treated anticancer prodrug (KGDEVD-DOX) prepared in Example 1, followed by MIT assay (Cleaved Dox by Caspase-3 MIT assay), e) Treatment of cells with doxorubicin and radiation, followed by MIT assay (Doxorubicin+RT MTT assay), f) Treatment of cells with […], followed by MTT assay (KGDEVD-DOX+RT MTT assay). […]
(Formazan colour is commonly taken as a measure of viable cells.)

Series [2] relates to tumor mouse models transplanted with SCC 7 cell line. To be noted: 5 Gy radiation, then 10 mg/kg i.v. every day for 3 days; FIG. 18.
Series [3] has the same test system. Put plainly: Anti-tumor therapeutic effect of the anticancer prodrug with radiation (Example 3). To be noted: administered together with radiation (5 Gy, gamma knife); prodrug 3 mg/kg i.v. 24 hr after radiation and again after 2 days; FIG. 8. Type of series: in vivo.

Regarding `COc1cccc2c1C(=O)c1c(O)c3c(c(O)c1C2=O)C[C@@](O)(C(=O)CO)C[C@@H]3O[C@H]1C[C@H](NC(=O)OCc2ccc(NC(=O)[C@H](CC(=O)O)NC(=O)[C@@H](NC(=O)[C@H](CCC(=O)O)NC(=O)[C@H](CC(=O)O)NC(=O)CNC(=O)[C@H](CCCCN)NC(C)=O)C(C)C)cc2)[C@H](O)[C@H](C)O1` [KGDEVD-DOX, Ac-Lys-Gly-Asp-Glu-Val-Asp-PABC-DOX] (Ac-KGDEVD[PABC]-{Doxorubicin(3'-N)}), the “cytotoxicity when caspase-3 was not expressed” value in series [1] is “no cytotoxicity”. For the same compound, the “side effects (cytotoxicity of the drug in removed organs)” value in series [2] is “reduced side effects”.
As to `COc1cccc2c1C(=O)c1c(O)c3c(c(O)c1C2=O)C[C@@](O)(C(=O)CO)C[C@@H]3O[C@H]1C[C@H](N)[C@H](O)[C@H](C)O1` [doxorubicin], the “tumor size (tumor growth)” value in series [3] is reported as “tumor was reduced in size”.
